# Tests used:
# [1] = tested on: human adrenal gland section expressing aldosterone-producing adenoma; assay: In vitro autoradiography using human adrenal adenoma; type: binding; details: section of FIG. 17(b)
# Procedure, shortened: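 Autoradiography readout: PSL in equal-sized ROIs over adenoma (B2) and normal adrenal cortex (B1), expressed as B2/B1 and decay-corrected using half-life, applied activity and plate contact time. Tissue was surgically excised human adrenal, frozen and cut at 7 μm, incubated 10 min with 5-33 kBq/mL tracer in BSA-containing PBS, then imaged after 16-20 h exposure.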
# [2] = In vivo kinetics experiment (radioactivity distribution); parameters: species or system Wistar male rat; details: rat i.v., mean ± SD
# Procedure, shortened: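 Tissue radioactivity (% ID/g) and adrenal-to-blood, liver, kidney, small intestine, muscle and fat ratios determined at 10, 30 and 60 min post-dose. Tracers (approximately 1 to 3.7 MBq, saline with 1 w/v % ascorbic acid) injected i.v. into caudal vein of anesthetized 9-week male Wistar rats; organs excised, weighed, counted.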
# [3] = Plasma stability evaluation (TLC analysis); type: in vitro ADME; details: 37° C., 60 minutes, TLC analysis
# Procedure, shortened: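 TLC analysis, using each compound's synthesis conditions, judged stability after methanol was added and samples were centrifuged to remove protein. Beforehand, each tracer had spent 60 minutes at 37° C in pooled heparinized normal human plasma.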
smiles,measurement,setting,value
"COc1cc([123I])cc2c1nc(-c1cncc(Cn3ccnc3)c1)n2C1CC1 [[^123I] 609, 1-Cyclopropyl-2-[5-(imidazol-1-ylmethyl)pyridin-3-yl]-6-[^123I]iodo-4-methoxybenzimidazole]",B2/B1 accumulation ratio,[1],0.85
same,"B2 (PSL value, aldosterone-producing adenoma)",[1]; site 71b,3805
same,"B1 (PSL value, normal adrenal cortex)",[1]; site 72b,4479
same,Adrenal gland/blood ratio of radioactivity accumulation,[2]; 10 min after administration,70.18 ± 9.10
same,Adrenal gland/fat ratio of radioactivity accumulation,[2]; 10 min after administration,92.34 ± 17.88
same,Adrenal gland/kidney ratio of radioactivity accumulation,[2]; 10 min after administration,7.38 ± 1.46
same,Adrenal gland/liver ratio of radioactivity accumulation,[2]; 10 min after administration,1.55 ± 0.09
same,Adrenal gland/muscle ratio of radioactivity accumulation,[2]; 10 min after administration,46.03 ± 17.74
same,Adrenal gland/small intestine ratio of radioactivity accumulation,[2]; 10 min after administration,5.04 ± 0.97
same,Radioactivity distribution Adrenal gland,[2]; 10 min after administration,8.54 ± 1.17 % ID/g
same,Radioactivity distribution Bladder (including urine),[2]; 10 min after administration,0.17 ± 0.08 % ID/g
same,Radioactivity distribution Blood,[2]; 10 min after administration,0.12 ± 0.00 % ID/g
same,Radioactivity distribution Fat,[2]; 10 min after administration,0.09 ± 0.01 % ID/g
same,Radioactivity distribution Femur,[2]; 10 min after administration,0.37 ± 0.06 % ID/g
same,Radioactivity distribution Heart,[2]; 10 min after administration,0.36 ± 0.01 % ID/g
same,Radioactivity distribution Kidney,[2]; 10 min after administration,1.17 ± 0.08 % ID/g
same,Radioactivity distribution Large intestine,[2]; 10 min after administration,0.16 ± 0.01 % ID/g
same,Radioactivity distribution Liver,[2]; 10 min after administration,5.50 ± 0.46 % ID/g
same,Radioactivity distribution Lung,[2]; 10 min after administration,0.51 ± 0.04 % ID/g
same,Radioactivity distribution Muscle (lower limbs),[2]; 10 min after administration,0.20 ± 0.06 % ID/g
same,Radioactivity distribution Remaining whole body,[2]; 10 min after administration,0.20 ± 0.03 % ID/g
same,Radioactivity distribution Small intestine,[2]; 10 min after administration,1.71 ± 0.18 % ID/g
same,Radioactivity distribution Spleen,[2]; 10 min after administration,0.82 ± 0.05 % ID/g
same,Radioactivity distribution Stomach,[2]; 10 min after administration,0.65 ± 0.25 % ID/g
same,Radioactivity distribution Testis,[2]; 10 min after administration,0.05 ± 0.00 % ID/g
same,Radioactivity distribution Whole brain,[2]; 10 min after administration,0.02 ± 0.00 % ID/g
same,Adrenal gland/blood ratio of radioactivity accumulation,[2]; 30 min after administration,78.36 ± 23.36
same,Adrenal gland/fat ratio of radioactivity accumulation,[2]; 30 min after administration,110.76 ± 35.85
same,Adrenal gland/kidney ratio of radioactivity accumulation,[2]; 30 min after administration,11.13 ± 2.62
same,Adrenal gland/liver ratio of radioactivity accumulation,[2]; 30 min after administration,2.54 ± 0.51
same,Adrenal gland/muscle ratio of radioactivity accumulation,[2]; 30 min after administration,66.27 ± 15.78
same,Adrenal gland/small intestine ratio of radioactivity accumulation,[2]; 30 min after administration,2.54 ± 0.80
same,Radioactivity distribution Adrenal gland,[2]; 30 min after administration,11.21 ± 3.24 % ID/g
same,Radioactivity distribution Bladder (including urine),[2]; 30 min after administration,0.80 ± 0.10 % ID/g
same,Radioactivity distribution Blood,[2]; 30 min after administration,0.14 ± 0.01 % ID/g
same,Radioactivity distribution Fat,[2]; 30 min after administration,0.10 ± 0.02 % ID/g
same,Radioactivity distribution Femur,[2]; 30 min after administration,0.29 ± 0.04 % ID/g
same,Radioactivity distribution Heart,[2]; 30 min after administration,0.36 ± 0.02 % ID/g
same,Radioactivity distribution Kidney,[2]; 30 min after administration,1.00 ± 0.07 % ID/g
same,Radioactivity distribution Large intestine,[2]; 30 min after administration,0.18 ± 0.03 % ID/g
same,Radioactivity distribution Liver,[2]; 30 min after administration,4.36 ± 0.46 % ID/g
same,Radioactivity distribution Lung,[2]; 30 min after administration,0.42 ± 0.05 % ID/g
same,Radioactivity distribution Muscle (lower limbs),[2]; 30 min after administration,0.17 ± 0.03 % ID/g
same,Radioactivity distribution Remaining whole body,[2]; 30 min after administration,0.14 ± 0.01 % ID/g
same,Radioactivity distribution Small intestine,[2]; 30 min after administration,4.44 ± 0.63 % ID/g
same,Radioactivity distribution Spleen,[2]; 30 min after administration,0.43 ± 0.03 % ID/g
same,Radioactivity distribution Stomach,[2]; 30 min after administration,1.27 ± 0.17 % ID/g
same,Radioactivity distribution Testis,[2]; 30 min after administration,0.07 ± 0.01 % ID/g
same,Radioactivity distribution Whole brain,[2]; 30 min after administration,0.02 ± 0.00 % ID/g
same,Adrenal gland/blood ratio of radioactivity accumulation,[2]; 60 min after administration,87.48 ± 12.64
same,Adrenal gland/fat ratio of radioactivity accumulation,[2]; 60 min after administration,147.76 ± 20.75
same,Adrenal gland/kidney ratio of radioactivity accumulation,[2]; 60 min after administration,13.00 ± 2.52
same,Adrenal gland/liver ratio of radioactivity accumulation,[2]; 60 min after administration,3.99 ± 0.57
same,Adrenal gland/muscle ratio of radioactivity accumulation,[2]; 60 min after administration,103.59 ± 13.53
same,Adrenal gland/small intestine ratio of radioactivity accumulation,[2]; 60 min after administration,1.53 ± 0.14
same,Radioactivity distribution Adrenal gland,[2]; 60 min after administration,11.04 ± 1.72 % ID/g
same,Radioactivity distribution Bladder (including urine),[2]; 60 min after administration,2.03 ± 0.70 % ID/g
same,Radioactivity distribution Blood,[2]; 60 min after administration,0.13 ± 0.00 % ID/g
same,Radioactivity distribution Fat,[2]; 60 min after administration,0.07 ± 0.01 % ID/g
same,Radioactivity distribution Femur,[2]; 60 min after administration,0.33 ± 0.03 % ID/g
same,Radioactivity distribution Heart,[2]; 60 min after administration,0.33 ± 0.02 % ID/g
same,Radioactivity distribution Kidney,[2]; 60 min after administration,0.85 ± 0.03 % ID/g
same,Radioactivity distribution Large intestine,[2]; 60 min after administration,0.63 ± 0.43 % ID/g
same,Radioactivity distribution Liver,[2]; 60 min after administration,2.77 ± 0.15 % ID/g
same,Radioactivity distribution Lung,[2]; 60 min after administration,0.38 ± 0.02 % ID/g
same,Radioactivity distribution Muscle (lower limbs),[2]; 60 min after administration,0.11 ± 0.00 % ID/g
same,Radioactivity distribution Remaining whole body,[2]; 60 min after administration,0.10 ± 0.00 % ID/g
same,Radioactivity distribution Small intestine,[2]; 60 min after administration,7.17 ± 0.45 % ID/g
same,Radioactivity distribution Spleen,[2]; 60 min after administration,0.30 ± 0.01 % ID/g
same,Radioactivity distribution Stomach,[2]; 60 min after administration,1.47 ± 0.33 % ID/g
same,Radioactivity distribution Testis,[2]; 60 min after administration,0.07 ± 0.01 % ID/g
same,Radioactivity distribution Whole brain,[2]; 60 min after administration,0.01 ± 0.00 % ID/g
same,Radiochemical purity after incubation in human plasma,[3],86%

# From patent US10358434B2, “2-(3-pyridinyl)-1H-benzimidazole derivative compound and medicament containing same” (NIHON MEDI-PHYSICS CO., LTD., priority 2014, dated 2019)
